Reference: patent US20240417428A1, “POLYPEPTIDE FOR INHIBITING TRPM8 AND USE THEREOF” (ZHEJIANG UNIVERSITY, priority 2021, published 2024)
“Also recorded” adds a separate entry of the source. Where a SMILES comes first, the peptide text is derived from it.

Tests used:
[1] = tested on: oxaliplatin-induced mechanical allodynia; assay: Oxaliplatin-induced mechanical allodynia, von Frey test; format: in vivo, mice; conditions: 3.5 μg/20 μl i.pl., day 10 after oxaliplatin, compared to saline
Protocol: Adult male CD1 mice (6-8 weeks old) were used as experimental animals for behavioral experiments and primary cultures of DRG neurons. Mice were raised in the condition of 12 h light/12 h dark of light cycle with adequate standard chow and water. All animal protocols were approved by the Institutional Animal Care and Use Committee (IACUC) of Zhejiang University.
All of mice were habituated to the behavioral testing environment for 1-to-2 hours in 2-to-3 days before the behavioral testing. Single intraperitoneal (i.p.) injection of oxaliplatin (6 mg/kg body weight) was given to generate chemotherapy-induced neuropathic pain. Neuropathic pain behaviors were tested about 10 days after oxaliplatin injection.
Mechanical allodynia was assessed by measuring paw withdrawal thresholds in von Frey test. The paw withdrawal thresholds of mice in the von Frey test were tested according to Dixon'sup-down method. […] The vonFrey hairs with different stiffness were selected in turn to simulate, with 5 s interval per two simulations, and total six simulations were completed, the paw withdrawal thresholds (PWT) of mice were assessed according to the responding amount table The von Frey test was respectively performed on day 10 pre- or post-treatment with Oxaliplatin, saline or 3.5 μg/20 μL DeC-1.2 was intraplantarly injected to assess its analgesic effect on oxaliplatin-induced allodynia.

[2] = target: TRPM8 (Mus musculus, UniProt Q8R4D5); assay: Inside-out single-channel recording of cold-activated TRPM8 (16° C.) at +80 mV; format: cell-based; set-up: expressed in transfected cells; host or cells: HEK293T; conditions: DeC-1.2 100 μM at 16° C.
TRPM8, sequence (Q8R4D5 whole entry): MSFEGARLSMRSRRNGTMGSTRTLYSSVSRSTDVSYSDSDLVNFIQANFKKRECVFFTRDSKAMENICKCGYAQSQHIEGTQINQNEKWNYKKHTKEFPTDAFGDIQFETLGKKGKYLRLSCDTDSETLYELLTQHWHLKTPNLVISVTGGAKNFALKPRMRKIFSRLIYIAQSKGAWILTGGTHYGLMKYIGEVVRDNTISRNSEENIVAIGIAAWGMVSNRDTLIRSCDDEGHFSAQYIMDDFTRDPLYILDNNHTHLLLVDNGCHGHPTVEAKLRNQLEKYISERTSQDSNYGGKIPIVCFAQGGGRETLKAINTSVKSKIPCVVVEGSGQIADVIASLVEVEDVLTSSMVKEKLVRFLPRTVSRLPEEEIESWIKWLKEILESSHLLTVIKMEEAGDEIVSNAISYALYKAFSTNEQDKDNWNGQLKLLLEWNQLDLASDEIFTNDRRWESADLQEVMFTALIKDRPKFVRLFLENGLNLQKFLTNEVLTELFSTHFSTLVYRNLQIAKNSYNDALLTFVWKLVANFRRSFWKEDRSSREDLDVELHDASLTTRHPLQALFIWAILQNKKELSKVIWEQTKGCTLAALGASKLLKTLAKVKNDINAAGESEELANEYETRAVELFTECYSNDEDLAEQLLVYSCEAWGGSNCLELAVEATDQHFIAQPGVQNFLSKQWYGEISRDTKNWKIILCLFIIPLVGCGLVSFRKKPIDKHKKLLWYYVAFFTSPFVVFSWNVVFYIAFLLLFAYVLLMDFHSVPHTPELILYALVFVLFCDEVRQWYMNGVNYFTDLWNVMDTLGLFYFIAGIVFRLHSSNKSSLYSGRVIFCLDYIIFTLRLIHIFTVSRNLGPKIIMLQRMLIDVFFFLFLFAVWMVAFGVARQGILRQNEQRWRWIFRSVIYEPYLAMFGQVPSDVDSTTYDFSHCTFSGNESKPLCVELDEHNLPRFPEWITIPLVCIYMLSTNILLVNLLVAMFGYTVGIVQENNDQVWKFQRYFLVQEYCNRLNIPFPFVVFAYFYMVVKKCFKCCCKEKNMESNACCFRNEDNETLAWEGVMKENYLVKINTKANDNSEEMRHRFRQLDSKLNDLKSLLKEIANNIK
Protocol: (§1) HEK293T cells were cultured in Dulbecco's modified Eagle culture medium under a 37° C., 5% CO2 environment, 10% fetal bovine serum, penicillin (100 U/mL), and streptomycin ([…]) was needed to add into the culture medium. Transient transfection was conducted by using Lipo 2000 (Invitrogen) transfection kit and following the instruction manual.
(§2) Electrophysiological experiment recordings were performed on the cells within 24˜48 h of transient transfections. Specifically, single channel electrophysiological recordings were performed within 8 h after transfection.
Measurement of the cell currents was respectively performed in the whole-cell recording mode, inside-out recording mode or outside-out recording mode with a HEKA EPC10 amplifier. In the whole cell electrophysiological recordings, glass microelectrodes made of borosilicate material were fire-polished to a original electrode resistance of about 3-6 MΩ. Serial resistance was compensated by 60%. The whole cell electrophysiological recordings were performed at ±80 mV. For single channel electrophysiological recordings, glass microelectrodes were fire-polished to a higher resistance of 6-8 MΩ2. Current signal was sampled at 10 kHz and filtered at 2.9 kHz. Membrane potential of the cell membrane would be clamped at +80 mV. […]
There were different bath and pipette solutions prepared for different ion channels current measurement. […]

[3] = target: T1, Nav1.7 (Homo sapiens, UniProt Q15858); assay: Electrophysiological recording of Nav1.7 sodium current; format: cell-based
T1 construct: expressed in transfected cells; host or cells: HEK293T
T1 sequence (Q15858 whole entry): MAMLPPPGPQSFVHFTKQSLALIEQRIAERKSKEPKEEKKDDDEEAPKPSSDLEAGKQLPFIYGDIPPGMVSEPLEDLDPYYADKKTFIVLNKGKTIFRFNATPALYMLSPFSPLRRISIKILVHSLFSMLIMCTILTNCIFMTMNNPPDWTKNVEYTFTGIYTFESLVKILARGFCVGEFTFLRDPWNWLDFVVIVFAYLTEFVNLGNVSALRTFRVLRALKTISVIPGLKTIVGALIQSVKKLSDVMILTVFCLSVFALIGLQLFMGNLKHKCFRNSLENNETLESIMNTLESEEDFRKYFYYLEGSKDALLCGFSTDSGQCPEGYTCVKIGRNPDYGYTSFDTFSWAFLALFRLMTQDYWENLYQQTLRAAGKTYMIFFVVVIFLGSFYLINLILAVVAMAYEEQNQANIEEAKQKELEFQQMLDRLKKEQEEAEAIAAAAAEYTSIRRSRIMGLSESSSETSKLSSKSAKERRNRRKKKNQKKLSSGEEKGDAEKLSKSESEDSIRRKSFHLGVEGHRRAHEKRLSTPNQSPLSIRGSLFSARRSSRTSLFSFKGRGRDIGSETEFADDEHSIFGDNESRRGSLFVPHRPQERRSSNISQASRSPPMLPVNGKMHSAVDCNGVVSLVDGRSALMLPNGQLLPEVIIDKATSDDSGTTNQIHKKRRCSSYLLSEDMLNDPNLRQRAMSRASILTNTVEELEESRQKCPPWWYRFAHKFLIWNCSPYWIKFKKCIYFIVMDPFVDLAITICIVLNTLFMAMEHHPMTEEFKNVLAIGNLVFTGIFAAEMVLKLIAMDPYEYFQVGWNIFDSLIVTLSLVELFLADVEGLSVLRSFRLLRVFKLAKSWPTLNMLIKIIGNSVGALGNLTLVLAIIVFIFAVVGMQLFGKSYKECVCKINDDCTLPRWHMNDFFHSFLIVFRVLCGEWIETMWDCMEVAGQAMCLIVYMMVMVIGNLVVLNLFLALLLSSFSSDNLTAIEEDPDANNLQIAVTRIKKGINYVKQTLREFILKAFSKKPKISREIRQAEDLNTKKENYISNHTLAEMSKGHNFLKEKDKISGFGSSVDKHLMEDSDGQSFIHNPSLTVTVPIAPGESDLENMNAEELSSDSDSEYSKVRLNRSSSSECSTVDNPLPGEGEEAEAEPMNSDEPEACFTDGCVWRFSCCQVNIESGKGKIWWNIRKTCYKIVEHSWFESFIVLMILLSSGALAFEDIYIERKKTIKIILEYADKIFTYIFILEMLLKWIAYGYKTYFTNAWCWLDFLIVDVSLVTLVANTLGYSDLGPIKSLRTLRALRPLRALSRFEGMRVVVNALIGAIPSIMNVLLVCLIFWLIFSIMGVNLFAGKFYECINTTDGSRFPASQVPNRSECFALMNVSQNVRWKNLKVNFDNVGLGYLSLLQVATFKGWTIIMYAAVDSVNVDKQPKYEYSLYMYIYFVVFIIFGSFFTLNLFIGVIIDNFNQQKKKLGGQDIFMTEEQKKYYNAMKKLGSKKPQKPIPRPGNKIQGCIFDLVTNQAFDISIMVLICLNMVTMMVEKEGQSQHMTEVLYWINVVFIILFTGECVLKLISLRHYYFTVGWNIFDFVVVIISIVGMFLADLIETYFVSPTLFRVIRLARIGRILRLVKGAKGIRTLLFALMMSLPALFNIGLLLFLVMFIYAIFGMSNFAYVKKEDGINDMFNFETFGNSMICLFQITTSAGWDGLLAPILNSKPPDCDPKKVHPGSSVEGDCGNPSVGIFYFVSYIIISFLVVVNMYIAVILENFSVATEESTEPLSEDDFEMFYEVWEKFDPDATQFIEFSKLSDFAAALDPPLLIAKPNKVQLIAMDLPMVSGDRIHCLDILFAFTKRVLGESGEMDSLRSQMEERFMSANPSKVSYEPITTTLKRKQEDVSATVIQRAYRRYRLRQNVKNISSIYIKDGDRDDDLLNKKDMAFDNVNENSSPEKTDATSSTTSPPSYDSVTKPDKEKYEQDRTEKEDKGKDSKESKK
Protocol: as §1, §2
(§3) Measurement of the cell currents was respectively performed in the whole-cell recording mode, inside-out recording mode or outside-out recording mode with a HEKA EPC10 amplifier. In the whole cell electrophysiological recordings, glass microelectrodes made of borosilicate material were fire-polished to a original electrode resistance of about 3-6 MΩ. Serial resistance was compensated by 60%. The whole cell electrophysiological recordings were performed at ±80 mV. For single channel electrophysiological recordings, glass microelectrodes were fire-polished to a higher resistance of 6-8 MΩ2. Current signal was sampled at 10 kHz and filtered at 2.9 kHz. Membrane potential of the cell membrane would be clamped at +80 mV. All electrophysiological recordings were performed at room temperature (22° C.) (the maximum variation is 1° C.). […]

[4] = target: T2, Nav1.5 (Homo sapiens, UniProt Q14524); assay: Electrophysiological recording of Nav1.5 sodium current; format: cell-based
T2 construct: expressed in transfected cells; host or cells: HEK293T
T2 sequence (Q14524 whole entry): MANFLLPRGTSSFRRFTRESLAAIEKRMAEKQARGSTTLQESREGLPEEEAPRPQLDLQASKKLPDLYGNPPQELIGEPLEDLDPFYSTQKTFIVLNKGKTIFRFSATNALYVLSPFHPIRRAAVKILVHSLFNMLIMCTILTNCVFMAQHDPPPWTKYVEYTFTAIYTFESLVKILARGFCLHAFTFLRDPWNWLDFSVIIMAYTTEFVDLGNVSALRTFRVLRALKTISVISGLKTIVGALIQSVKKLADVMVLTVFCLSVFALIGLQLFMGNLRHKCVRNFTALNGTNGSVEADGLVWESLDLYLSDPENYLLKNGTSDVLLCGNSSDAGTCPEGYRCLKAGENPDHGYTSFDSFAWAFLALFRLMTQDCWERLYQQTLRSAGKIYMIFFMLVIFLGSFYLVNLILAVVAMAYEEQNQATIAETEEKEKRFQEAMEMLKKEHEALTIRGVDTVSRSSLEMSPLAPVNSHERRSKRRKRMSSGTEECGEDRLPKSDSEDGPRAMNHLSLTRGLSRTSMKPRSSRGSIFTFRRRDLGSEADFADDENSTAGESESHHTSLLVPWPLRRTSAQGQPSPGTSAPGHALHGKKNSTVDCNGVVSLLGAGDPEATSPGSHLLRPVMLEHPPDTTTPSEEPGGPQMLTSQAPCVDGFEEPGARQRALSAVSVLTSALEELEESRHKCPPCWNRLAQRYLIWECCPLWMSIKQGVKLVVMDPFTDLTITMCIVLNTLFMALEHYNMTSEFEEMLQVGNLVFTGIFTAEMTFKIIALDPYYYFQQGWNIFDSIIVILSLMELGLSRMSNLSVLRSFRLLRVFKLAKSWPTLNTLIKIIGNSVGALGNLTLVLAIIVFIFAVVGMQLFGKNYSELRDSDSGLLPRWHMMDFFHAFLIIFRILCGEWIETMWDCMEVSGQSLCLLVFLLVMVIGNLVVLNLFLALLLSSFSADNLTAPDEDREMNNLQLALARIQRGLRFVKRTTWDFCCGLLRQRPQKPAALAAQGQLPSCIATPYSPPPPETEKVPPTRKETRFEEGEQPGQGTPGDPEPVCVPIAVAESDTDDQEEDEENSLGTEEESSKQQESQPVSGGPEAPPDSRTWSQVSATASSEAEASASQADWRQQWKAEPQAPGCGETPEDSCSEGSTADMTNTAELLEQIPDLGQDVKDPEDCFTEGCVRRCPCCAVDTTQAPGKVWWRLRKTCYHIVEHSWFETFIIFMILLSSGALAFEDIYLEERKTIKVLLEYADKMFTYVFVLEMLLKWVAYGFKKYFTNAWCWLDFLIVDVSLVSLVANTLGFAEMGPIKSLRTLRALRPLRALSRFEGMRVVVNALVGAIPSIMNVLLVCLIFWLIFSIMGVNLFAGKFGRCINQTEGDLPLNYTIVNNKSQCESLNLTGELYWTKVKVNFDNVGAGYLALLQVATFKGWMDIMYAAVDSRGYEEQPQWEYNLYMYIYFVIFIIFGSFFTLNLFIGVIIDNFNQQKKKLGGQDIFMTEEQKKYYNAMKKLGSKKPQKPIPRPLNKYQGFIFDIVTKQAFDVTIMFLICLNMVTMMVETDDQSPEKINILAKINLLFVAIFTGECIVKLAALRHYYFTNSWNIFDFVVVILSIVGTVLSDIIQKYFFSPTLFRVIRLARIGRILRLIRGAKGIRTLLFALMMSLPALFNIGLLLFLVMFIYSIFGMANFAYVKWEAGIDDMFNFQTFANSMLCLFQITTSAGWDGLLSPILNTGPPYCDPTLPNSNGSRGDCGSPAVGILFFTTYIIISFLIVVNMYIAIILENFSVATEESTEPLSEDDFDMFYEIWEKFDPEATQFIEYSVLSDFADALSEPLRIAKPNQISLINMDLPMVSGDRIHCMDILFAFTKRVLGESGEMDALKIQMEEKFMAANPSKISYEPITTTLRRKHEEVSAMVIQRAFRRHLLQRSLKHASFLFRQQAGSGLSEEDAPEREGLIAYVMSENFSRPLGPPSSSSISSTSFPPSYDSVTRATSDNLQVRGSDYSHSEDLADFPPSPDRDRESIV
Protocol: as §1, §2, §3

C[C@@H]1NC(=O)[C@H](CCCNC(=N)N)NC(=O)[C@H](CC(=O)O)NC(=O)[C@H](CCCNC(=N)N)NC(=O)[C@H](CCCNC(=N)N)NC(=O)[C@@H](N)CSSC[C@@H](C(=O)O)NC(=O)[C@H](CCCNC(=N)N)NC(=O)[C@H](CCC(N)=O)NC(=O)[C@H](CCCNC(=N)N)NC(=O)[C@H](Cc2ccc(O)cc2)NC(=O)[C@H](Cc2c[nH]cn2)NC(=O)[C@H](CCCNC(=N)N)NC1=O [DeC-1.2, CRRDRARHYRQRC] (HELM PEPTIDE1{C.R.R.D.R.A.R.H.Y.R.Q.R.C}$PEPTIDE1,PEPTIDE1,1:R3-13:R3$$$V2.0; N-terminus and C-terminus assumed)
paw withdrawal threshold in von Frey test [1]: did not change paw withdrawal threshold | effect on open probability of cold-activated TRPM8 [2]: does not change significantly; also recorded: did not decrease the open probability | effect on single-channel conductance of cold-activated TRPM8 [2]: does not change significantly; also recorded: did not further reduce the single-channel conductance | IC50 [3]: > 100 µM | inhibition of Nav channels ([3]; Nav1.7): none of the TRP channels and Nav channels were inhibited | IC50 [4]: > 100 µM | inhibition of Nav channels ([4]; Nav1.5): none of the TRP channels and Nav channels were inhibited
